{"source": "paper PMC12300041", "about": "“Tricyclic Isatin Derivatives as Anti-Inflammatory Compounds with High Kinase Binding Affinity” (Molecules, 2025)", "experiment_in_all_cases": "KINOMEscan", "assay_type_in_all_cases": "binding", "key": {"[1]": {"target": "T1, KIT (V559D) (Homo sapiens, UniProt P10721, V559D)", "T1 construct": "purchased Eurofins DiscoverX KINOMEscan", "T1 sequence (P10721 26-976 V559D)": "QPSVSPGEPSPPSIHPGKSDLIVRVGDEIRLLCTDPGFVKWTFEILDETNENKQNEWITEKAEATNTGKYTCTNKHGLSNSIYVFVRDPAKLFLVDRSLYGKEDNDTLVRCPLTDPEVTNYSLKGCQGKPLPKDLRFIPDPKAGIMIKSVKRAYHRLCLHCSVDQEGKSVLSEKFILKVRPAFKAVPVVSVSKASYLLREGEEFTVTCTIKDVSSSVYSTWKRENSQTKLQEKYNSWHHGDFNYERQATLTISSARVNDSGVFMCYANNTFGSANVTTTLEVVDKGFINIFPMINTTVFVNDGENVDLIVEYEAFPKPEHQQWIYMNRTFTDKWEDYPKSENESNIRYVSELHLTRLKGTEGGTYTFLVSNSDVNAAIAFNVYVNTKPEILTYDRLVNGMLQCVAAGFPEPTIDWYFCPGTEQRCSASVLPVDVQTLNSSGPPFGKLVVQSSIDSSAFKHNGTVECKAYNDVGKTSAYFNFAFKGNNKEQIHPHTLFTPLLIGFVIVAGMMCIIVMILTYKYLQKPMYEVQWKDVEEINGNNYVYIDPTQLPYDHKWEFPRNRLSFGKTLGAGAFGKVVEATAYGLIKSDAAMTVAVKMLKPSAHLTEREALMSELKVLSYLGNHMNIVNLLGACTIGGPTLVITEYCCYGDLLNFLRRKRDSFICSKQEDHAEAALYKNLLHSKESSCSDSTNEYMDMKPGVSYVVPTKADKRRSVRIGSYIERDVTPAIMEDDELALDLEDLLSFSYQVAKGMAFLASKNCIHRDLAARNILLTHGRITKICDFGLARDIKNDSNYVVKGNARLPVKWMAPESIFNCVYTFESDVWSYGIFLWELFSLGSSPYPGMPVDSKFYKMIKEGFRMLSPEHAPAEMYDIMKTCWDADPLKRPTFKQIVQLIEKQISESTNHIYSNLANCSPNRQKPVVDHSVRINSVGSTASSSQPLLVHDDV", "procedure,_shortened": "(§1)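 Kd determination: 12-pt half-log series, top 33 μM; 1 h binding, RT; unbound kinase pulled down on immobilized ligand, measured by qPCR.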"}, "[2]": {"target": "T2, LATS1 (Homo sapiens, UniProt O95835)", "T2 construct": "purchased Eurofins DiscoverX KINOMEscan", "procedure,_shortened": "as §1"}, "[3]": {"target": "T3, PIKFYVE (Homo sapiens, UniProt Q9Y2I7)", "T3 construct": "purchased Eurofins DiscoverX KINOMEscan", "procedure,_shortened": "as §1"}, "[4]": {"target": "T4, EGFR (L858R) (Homo sapiens, UniProt P00533, L858R)", "T4 construct": "purchased Eurofins DiscoverX KINOMEscan", "procedure,_shortened": "as §1"}, "[5]": {"target": "T5, PLK2 (Homo sapiens, UniProt Q9NYY3)", "T5 construct": "purchased Eurofins DiscoverX KINOMEscan", "procedure,_shortened": "as §1"}, "[6]": {"target": "T6, PKAC-α (Homo sapiens, UniProt P17612)", "T6 construct": "purchased Eurofins DiscoverX KINOMEscan", "procedure,_shortened": "as §1"}, "[7]": {"target": "T7, CSNK1G1 (Homo sapiens, UniProt Q9HCP0)", "T7 construct": "purchased Eurofins DiscoverX KINOMEscan", "procedure,_shortened": "as §1"}, "[8]": {"target": "T8, FGR (Homo sapiens, UniProt P09769)", "T8 construct": "purchased Eurofins DiscoverX KINOMEscan", "procedure,_shortened": "as §1"}, "[9]": {"target": "T9, CTK (Homo sapiens, UniProt P42679)", "T9 construct": "purchased Eurofins DiscoverX KINOMEscan", "procedure,_shortened": "as §1"}, "[10]": {"target": "T10, CLK3 (Homo sapiens, UniProt P49761)", "T10 construct": "purchased Eurofins DiscoverX KINOMEscan", "procedure,_shortened": "as §1"}, "[11]": {"target": "T11, PIK3CB (Homo sapiens, UniProt P42338)", "T11 construct": "purchased Eurofins DiscoverX KINOMEscan", "procedure,_shortened": "as §1"}, "[12]": {"target": "T12, YSK1 (Homo sapiens, UniProt O00506)", "T12 construct": "purchased Eurofins DiscoverX KINOMEscan", "procedure,_shortened": "as §1"}, "[13]": {"target": "T13, NEK4 (Homo sapiens, UniProt P51957)", "T13 construct": "purchased Eurofins DiscoverX KINOMEscan", "procedure,_shortened": "as §1"}, "[14]": {"target": "T14, ERBB2 (Homo sapiens, UniProt P04626)", "T14 construct": "purchased Eurofins DiscoverX KINOMEscan", "procedure,_shortened": "as §1"}, "[15]": {"target": "T15, PKN2 (Homo sapiens, UniProt Q16513)", "T15 construct": "purchased Eurofins DiscoverX KINOMEscan", "procedure,_shortened": "as §1"}, "[16]": {"target": "T16, JAK3 (JH1domain-cat.) (Homo sapiens, UniProt P52333)", "T16 construct": "JAK3 (JH1domain-cat.); purchased Eurofins DiscoverX KINOMEscan", "T16 sequence (P52333 813-1124 limits assumed)": "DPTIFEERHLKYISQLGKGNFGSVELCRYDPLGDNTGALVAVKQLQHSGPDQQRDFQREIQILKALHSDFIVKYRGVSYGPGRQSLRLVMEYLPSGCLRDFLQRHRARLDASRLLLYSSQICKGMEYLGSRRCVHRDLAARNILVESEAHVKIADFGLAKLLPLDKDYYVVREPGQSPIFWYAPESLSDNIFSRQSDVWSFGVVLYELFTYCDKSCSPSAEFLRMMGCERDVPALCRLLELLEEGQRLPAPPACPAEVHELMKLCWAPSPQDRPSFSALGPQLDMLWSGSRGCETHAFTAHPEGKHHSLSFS", "procedure,_shortened": "as §1"}, "[17]": {"target": "T17, HCK (Homo sapiens, UniProt P08631)", "T17 construct": "purchased Eurofins DiscoverX KINOMEscan", "procedure,_shortened": "as §1"}, "[18]": {"target": "T18, SGK2 (Homo sapiens, UniProt Q9HBY8)", "T18 construct": "purchased Eurofins DiscoverX KINOMEscan", "procedure,_shortened": "as §1"}, "[19]": {"target": "T19, HUNK (Homo sapiens, UniProt P57058)", "T19 construct": "purchased Eurofins DiscoverX KINOMEscan", "procedure,_shortened": "as §1"}, "[20]": {"target": "T20, PDPK1 (Homo sapiens, UniProt O15530)", "T20 construct": "purchased Eurofins DiscoverX KINOMEscan", "procedure,_shortened": "as §1"}, "[21]": {"target": "T21, MAK (Homo sapiens, UniProt P20794)", "T21 construct": "purchased Eurofins DiscoverX KINOMEscan", "procedure,_shortened": "as §1"}, "[22]": {"target": "T22, AKT1 (Homo sapiens, UniProt P31749)", "T22 construct": "purchased Eurofins DiscoverX KINOMEscan", "procedure,_shortened": "as §1"}, "[23]": {"target": "T23, YANK2 (Homo sapiens, UniProt Q9NY57)", "T23 construct": "purchased Eurofins DiscoverX KINOMEscan", "procedure,_shortened": "as §1"}, "[24]": {"target": "T24, RSK2 (Kin. Dom.1-N-term.) (Homo sapiens, UniProt P51812)", "T24 construct": "RSK2 (Kin. Dom.1-N-term.); purchased Eurofins DiscoverX KINOMEscan", "T24 sequence (P51812 1-397 limits assumed)": "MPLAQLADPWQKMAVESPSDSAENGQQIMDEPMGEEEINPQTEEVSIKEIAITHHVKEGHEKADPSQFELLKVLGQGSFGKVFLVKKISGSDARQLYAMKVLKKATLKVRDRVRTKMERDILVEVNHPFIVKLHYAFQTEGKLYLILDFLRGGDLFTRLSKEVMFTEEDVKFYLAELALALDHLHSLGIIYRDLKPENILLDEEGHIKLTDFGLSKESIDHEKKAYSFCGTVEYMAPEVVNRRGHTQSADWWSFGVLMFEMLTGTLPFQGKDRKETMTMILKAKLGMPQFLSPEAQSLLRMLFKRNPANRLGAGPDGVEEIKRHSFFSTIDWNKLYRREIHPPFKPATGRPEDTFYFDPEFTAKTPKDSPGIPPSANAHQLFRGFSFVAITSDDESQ", "procedure,_shortened": "as §1"}, "[25]": {"target": "T25, RET (M918T) (Homo sapiens, UniProt P07949, M918T)", "T25 construct": "purchased Eurofins DiscoverX KINOMEscan", "T25 sequence (P07949 29-1114 M918T)": "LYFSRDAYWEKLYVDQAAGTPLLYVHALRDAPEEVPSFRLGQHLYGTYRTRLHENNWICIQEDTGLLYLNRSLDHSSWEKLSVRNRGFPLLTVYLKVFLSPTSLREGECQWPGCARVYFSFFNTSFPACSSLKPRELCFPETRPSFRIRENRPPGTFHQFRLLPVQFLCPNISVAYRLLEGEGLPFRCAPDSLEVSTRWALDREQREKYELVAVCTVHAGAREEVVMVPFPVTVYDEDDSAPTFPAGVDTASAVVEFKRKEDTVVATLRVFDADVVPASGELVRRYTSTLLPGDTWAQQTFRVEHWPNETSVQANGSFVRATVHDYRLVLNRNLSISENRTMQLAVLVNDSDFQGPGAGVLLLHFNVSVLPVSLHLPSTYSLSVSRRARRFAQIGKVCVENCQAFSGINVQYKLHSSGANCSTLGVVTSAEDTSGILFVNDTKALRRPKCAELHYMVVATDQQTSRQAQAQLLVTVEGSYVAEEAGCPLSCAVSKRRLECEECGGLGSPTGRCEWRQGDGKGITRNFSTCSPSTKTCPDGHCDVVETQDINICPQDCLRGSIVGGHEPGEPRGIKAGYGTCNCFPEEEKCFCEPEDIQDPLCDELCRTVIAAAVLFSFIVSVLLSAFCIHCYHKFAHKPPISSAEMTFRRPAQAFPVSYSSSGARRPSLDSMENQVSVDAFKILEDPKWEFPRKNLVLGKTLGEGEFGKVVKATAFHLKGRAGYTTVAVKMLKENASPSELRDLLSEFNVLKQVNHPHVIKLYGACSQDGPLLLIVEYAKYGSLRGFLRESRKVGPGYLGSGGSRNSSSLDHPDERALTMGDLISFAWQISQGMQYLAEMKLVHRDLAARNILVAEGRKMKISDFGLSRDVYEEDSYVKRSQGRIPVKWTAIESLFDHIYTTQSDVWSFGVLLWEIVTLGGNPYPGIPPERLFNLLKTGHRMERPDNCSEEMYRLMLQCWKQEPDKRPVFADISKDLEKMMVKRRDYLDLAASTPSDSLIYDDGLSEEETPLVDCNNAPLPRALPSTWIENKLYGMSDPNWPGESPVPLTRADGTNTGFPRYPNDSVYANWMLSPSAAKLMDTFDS", "procedure,_shortened": "as §1"}, "[26]": {"target": "T26, ERK1 (Homo sapiens, UniProt P27361)", "T26 construct": "purchased Eurofins DiscoverX KINOMEscan", "procedure,_shortened": "as §1"}, "[27]": {"target": "T27, CAMK2A (Homo sapiens, UniProt Q9UQM7)", "T27 construct": "purchased Eurofins DiscoverX KINOMEscan", "procedure,_shortened": "as §1"}, "[28]": {"target": "T28, ERBB3 (Homo sapiens, UniProt P21860)", "T28 construct": "purchased Eurofins DiscoverX KINOMEscan", "T28 sequence (P21860 20-1342)": "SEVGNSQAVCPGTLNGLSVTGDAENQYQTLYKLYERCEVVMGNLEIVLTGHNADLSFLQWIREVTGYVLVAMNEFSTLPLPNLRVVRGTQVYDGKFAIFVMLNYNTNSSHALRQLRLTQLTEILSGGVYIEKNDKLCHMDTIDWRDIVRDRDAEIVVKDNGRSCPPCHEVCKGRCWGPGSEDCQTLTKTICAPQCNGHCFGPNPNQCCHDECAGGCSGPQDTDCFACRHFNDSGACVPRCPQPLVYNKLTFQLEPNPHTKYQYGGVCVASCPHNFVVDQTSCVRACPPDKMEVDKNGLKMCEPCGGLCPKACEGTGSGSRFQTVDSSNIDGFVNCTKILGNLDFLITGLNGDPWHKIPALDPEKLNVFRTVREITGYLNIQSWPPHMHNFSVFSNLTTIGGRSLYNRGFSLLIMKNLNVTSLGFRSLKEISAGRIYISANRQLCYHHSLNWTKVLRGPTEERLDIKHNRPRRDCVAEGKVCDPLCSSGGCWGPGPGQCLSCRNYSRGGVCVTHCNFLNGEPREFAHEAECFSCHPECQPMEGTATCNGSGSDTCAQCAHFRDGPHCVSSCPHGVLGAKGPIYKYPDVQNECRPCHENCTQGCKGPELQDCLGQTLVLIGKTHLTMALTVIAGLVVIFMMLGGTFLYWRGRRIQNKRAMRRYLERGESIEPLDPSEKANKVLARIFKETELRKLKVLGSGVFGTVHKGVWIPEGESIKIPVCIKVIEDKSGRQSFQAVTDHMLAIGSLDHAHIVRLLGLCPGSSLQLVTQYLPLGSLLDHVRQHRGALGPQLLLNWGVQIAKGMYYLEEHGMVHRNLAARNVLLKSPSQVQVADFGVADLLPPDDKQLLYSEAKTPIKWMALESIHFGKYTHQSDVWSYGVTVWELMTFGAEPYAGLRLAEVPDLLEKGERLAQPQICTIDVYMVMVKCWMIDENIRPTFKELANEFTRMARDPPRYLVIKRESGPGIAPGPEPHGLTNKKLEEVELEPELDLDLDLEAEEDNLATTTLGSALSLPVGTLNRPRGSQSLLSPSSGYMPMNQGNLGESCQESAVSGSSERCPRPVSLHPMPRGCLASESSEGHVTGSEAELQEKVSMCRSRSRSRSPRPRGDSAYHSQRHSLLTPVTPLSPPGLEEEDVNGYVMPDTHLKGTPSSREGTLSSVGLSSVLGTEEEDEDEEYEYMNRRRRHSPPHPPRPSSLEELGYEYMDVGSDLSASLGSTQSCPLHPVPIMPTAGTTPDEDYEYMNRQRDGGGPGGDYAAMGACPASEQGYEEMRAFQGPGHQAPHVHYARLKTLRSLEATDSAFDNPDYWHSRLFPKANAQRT", "procedure,_shortened": "as §1"}, "[29]": {"target": "T29, RPS6KA4 (Kin. Dom.2-C-term.) (Homo sapiens, UniProt O75676)", "T29 construct": "RPS6KA4 (Kin. Dom.2-C-term.); purchased Eurofins DiscoverX KINOMEscan", "procedure,_shortened": "as §1"}, "[30]": {"target": "T30, RSK1 (Kin. Dom.1-N-term.) (Homo sapiens, UniProt Q15418)", "T30 construct": "RSK1 (Kin. Dom.1-N-term.); purchased Eurofins DiscoverX KINOMEscan", "procedure,_shortened": "as §1"}, "[31]": {"target": "T31, IKK-ε (Homo sapiens, UniProt Q14164)", "T31 construct": "purchased Eurofins DiscoverX KINOMEscan", "procedure,_shortened": "as §1"}, "[32]": {"target": "T32, WNK2 (Homo sapiens, UniProt Q9Y3S1)", "T32 construct": "purchased Eurofins DiscoverX KINOMEscan", "procedure,_shortened": "as §1"}, "[33]": {"target": "T33, PHKG2 (Homo sapiens, UniProt P15735)", "T33 construct": "purchased Eurofins DiscoverX KINOMEscan", "procedure,_shortened": "as §1"}, "[34]": {"target": "T34, MYLK4 (Homo sapiens, UniProt Q86YV6)", "T34 construct": "purchased Eurofins DiscoverX KINOMEscan", "procedure,_shortened": "as §1"}, "[35]": {"target": "T35, PRKD3 (Homo sapiens, UniProt O94806)", "T35 construct": "purchased Eurofins DiscoverX KINOMEscan", "procedure,_shortened": "as §1"}, "[36]": {"target": "T36, FLT3 (D835Y) (Homo sapiens, UniProt P36888, D835Y)", "T36 construct": "purchased Eurofins DiscoverX KINOMEscan", "procedure,_shortened": "as §1"}, "[37]": {"target": "T37, PIM2 (Homo sapiens, UniProt Q9P1W9)", "T37 construct": "purchased Eurofins DiscoverX KINOMEscan", "T37 sequence (Q9P1W9 whole entry)": "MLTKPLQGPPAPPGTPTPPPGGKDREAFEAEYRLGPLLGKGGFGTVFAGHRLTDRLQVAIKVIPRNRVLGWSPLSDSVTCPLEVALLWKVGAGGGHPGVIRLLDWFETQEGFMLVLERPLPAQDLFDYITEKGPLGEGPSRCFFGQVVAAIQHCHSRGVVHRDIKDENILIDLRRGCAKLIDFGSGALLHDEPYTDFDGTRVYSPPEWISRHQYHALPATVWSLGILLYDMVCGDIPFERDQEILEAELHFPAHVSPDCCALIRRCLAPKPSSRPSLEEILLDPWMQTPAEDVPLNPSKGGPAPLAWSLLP", "procedure,_shortened": "as §1"}, "[38]": {"target": "T38, MELK (Homo sapiens, UniProt Q14680)", "T38 construct": "purchased Eurofins DiscoverX KINOMEscan", "T38 sequence (Q14680 whole entry)": "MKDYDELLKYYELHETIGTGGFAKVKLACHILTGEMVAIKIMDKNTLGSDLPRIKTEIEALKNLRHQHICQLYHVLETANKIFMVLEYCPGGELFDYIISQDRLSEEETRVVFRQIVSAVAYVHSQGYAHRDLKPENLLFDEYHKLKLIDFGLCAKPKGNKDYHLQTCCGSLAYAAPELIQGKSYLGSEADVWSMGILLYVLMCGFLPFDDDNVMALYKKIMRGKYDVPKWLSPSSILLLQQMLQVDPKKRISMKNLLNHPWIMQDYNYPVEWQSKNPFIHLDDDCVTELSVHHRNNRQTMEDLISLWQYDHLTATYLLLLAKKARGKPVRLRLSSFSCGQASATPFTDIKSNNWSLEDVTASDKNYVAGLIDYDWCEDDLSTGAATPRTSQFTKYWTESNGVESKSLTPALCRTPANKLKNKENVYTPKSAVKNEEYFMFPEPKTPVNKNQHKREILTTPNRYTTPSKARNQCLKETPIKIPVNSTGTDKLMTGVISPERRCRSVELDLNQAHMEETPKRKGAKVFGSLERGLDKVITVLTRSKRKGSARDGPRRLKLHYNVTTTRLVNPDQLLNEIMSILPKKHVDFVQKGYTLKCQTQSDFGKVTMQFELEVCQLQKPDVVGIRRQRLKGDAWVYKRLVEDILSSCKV", "procedure,_shortened": "as §1"}}}
{"smiles": "O=C1Nc2c(cc([N+](=O)[O-])c3c2CCCC3)C1=NO", "note": "[Compound 5d, 3-(Hydroxyimino)-5-nitro-1,3,6,7,8,9-hexahydro-2H-benzo[g]indol-2-one]", "values": [{"measurement": "inhibition at 10 µM", "setting": "[1]", "value": 0, "unit": "%"}, {"measurement": "inhibition at 10 µM", "setting": "[2]", "value": 0, "unit": "%"}, {"measurement": "inhibition at 10 µM", "setting": "[3]", "value": 28, "unit": "%"}, {"measurement": "inhibition at 10 µM", "setting": "[4]", "value": 17, "unit": "%"}, {"measurement": "inhibition at 10 µM", "setting": "[5]", "value": 67, "unit": "%"}, {"measurement": "inhibition at 10 µM", "setting": "[6]", "value": 0, "unit": "%"}, {"measurement": "inhibition at 10 µM", "setting": "[7]", "value": 84, "unit": "%"}, {"measurement": "inhibition at 10 µM", "setting": "[8]", "value": 0, "unit": "%"}, {"measurement": "inhibition at 10 µM", "setting": "[9]", "value": 0, "unit": "%"}, {"measurement": "inhibition at 10 µM", "setting": "[10]", "value": 19, "unit": "%"}, {"measurement": "inhibition at 10 µM", "setting": "[11]", "value": 0, "unit": "%"}, {"measurement": "inhibition at 10 µM", "setting": "[12]", "value": 10, "unit": "%"}, {"measurement": "inhibition at 10 µM", "setting": "[13]", "value": 1, "unit": "%"}, {"measurement": "inhibition at 10 µM", "setting": "[14]", "value": 29, "unit": "%"}, {"measurement": "inhibition at 10 µM", "setting": "[15]", "value": 84, "unit": "%"}, {"measurement": "inhibition at 10 µM", "setting": "[16]", "value": 49, "unit": "%"}, {"measurement": "inhibition at 10 µM", "setting": "[17]", "value": 20, "unit": "%"}, {"measurement": "inhibition at 10 µM", "setting": "[18]", "value": 88, "unit": "%"}, {"measurement": "inhibition at 10 µM", "setting": "[19]", "value": 0, "unit": "%"}, {"measurement": "inhibition at 10 µM", "setting": "[20]", "value": 8, "unit": "%"}, {"measurement": "inhibition at 10 µM", "setting": "[21]", "value": 5, "unit": "%"}, {"measurement": "inhibition at 10 µM", "setting": "[22]", "value": 10, "unit": "%"}, {"measurement": "inhibition at 10 µM", "setting": "[23]", "value": 0, "unit": "%"}, {"measurement": "inhibition at 10 µM", "setting": "[24]", "value": 81, "unit": "%"}, {"measurement": "inhibition at 10 µM", "setting": "[25]", "value": 8, "unit": "%"}, {"measurement": "inhibition at 10 µM", "setting": "[26]", "value": 0, "unit": "%"}, {"measurement": "inhibition at 10 µM", "setting": "[27]", "value": 71, "unit": "%"}, {"measurement": "inhibition at 10 µM", "setting": "[28]", "value": 0, "unit": "%"}, {"measurement": "inhibition at 10 µM", "setting": "[29]", "value": 89.3, "unit": "%"}, {"measurement": "inhibition at 10 µM", "setting": "[30]", "value": 0, "unit": "%"}, {"measurement": "inhibition at 10 µM", "setting": "[31]", "value": 23, "unit": "%"}, {"measurement": "inhibition at 10 µM", "setting": "[32]", "value": 0, "unit": "%"}, {"measurement": "inhibition at 10 µM", "setting": "[33]", "value": 45, "unit": "%"}, {"measurement": "inhibition at 10 µM", "setting": "[34]", "value": 7, "unit": "%"}, {"measurement": "inhibition at 10 µM", "setting": "[35]", "value": 77, "unit": "%"}, {"measurement": "inhibition at 10 µM", "setting": "[36]", "value": 54, "unit": "%"}, {"measurement": "inhibition at 10 µM", "setting": "[37]", "value": 96, "unit": "%"}, {"measurement": "inhibition at 10 µM", "setting": "[38]", "value": 56, "unit": "%"}]}
